According to ChEMBL document CHEMBL3400056, “Novel thiazolo[3,2-b]-1,2,4-triazoles derived from naproxen with analgesic/anti-inflammatory properties: Synthesis, biological evaluation and molecular modeling studies” (Bioorg Med Chem, 2015):

What was measured:
Mus musculus [1] = assay: Gastrointestinal toxicity in Swiss albino mouse assessed as ulcer index at 100 mg/kg, po measured after 2 hrs; type: organism-based; design: dose 100 mg/kg, route oral; conditions: in vivo
Mus musculus [2] = assay: Acute toxicity in Swiss albino mouse assessed as behavioral changes at 50 to 100 mg/kg, po measured up to 14 days; type: organism-based; design: dose 50-100 mg/kg, route oral; conditions: in vivo, 336 h
Mus musculus [3] = assay: Antiinflammatory activity in Swiss albino mouse assessed as inhibition of carrageenan-induced paw edema at 100 mg/kg, po administered 1 hr prior to carrageenan challenge measured after 2 hrs relative to control; type: functional; design: scale not given: the % may be the effect or the level left
[4] = molecular target: T1, Prostaglandin G/H synthase 1 (Ovis aries, UniProt P05979); assay: Inhibition of ovine recombinant COX-1 using […] as substrate incubated for 10 mins prior to arachidonic acid addition measured after 2 mins by EIA
T1 sequence (P05979 whole entry): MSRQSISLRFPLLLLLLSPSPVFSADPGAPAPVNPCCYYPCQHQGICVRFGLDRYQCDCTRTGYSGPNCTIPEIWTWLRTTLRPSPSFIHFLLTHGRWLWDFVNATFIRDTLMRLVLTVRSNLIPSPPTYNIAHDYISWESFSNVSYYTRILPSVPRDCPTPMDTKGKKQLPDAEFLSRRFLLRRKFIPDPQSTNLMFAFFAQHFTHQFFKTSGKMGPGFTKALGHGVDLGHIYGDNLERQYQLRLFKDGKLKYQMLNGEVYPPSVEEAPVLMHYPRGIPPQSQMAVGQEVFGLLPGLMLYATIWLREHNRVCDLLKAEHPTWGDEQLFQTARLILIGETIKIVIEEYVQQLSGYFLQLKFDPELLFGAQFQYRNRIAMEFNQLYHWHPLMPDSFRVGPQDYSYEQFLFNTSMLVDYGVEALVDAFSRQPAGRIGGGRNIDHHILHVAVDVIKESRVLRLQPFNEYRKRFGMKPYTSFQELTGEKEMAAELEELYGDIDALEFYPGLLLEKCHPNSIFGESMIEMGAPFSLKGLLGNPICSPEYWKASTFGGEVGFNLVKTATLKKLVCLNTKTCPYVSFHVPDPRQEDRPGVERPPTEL

[5] = Selectivity ratio of IC50 for ovine recombinant COX-1 to IC50 for human recombinant COX-2
Mus musculus [6] = assay: Analgesic activity in Swiss albino mouse assessed as latancy of withdrawing tail at 100 mg/kg, po measured after 2 hrs by tail flick test relative to control; type: functional
Mus musculus [7] = assay: Acute toxicity in Swiss albino mouse assessed as weight loss at 50 to 100 mg/kg, po measured up to 14 days; type: organism-based; design: dose 50-100 mg/kg, route oral; conditions: in vivo, 336 h
Mus musculus [8] = assay: Antiinflammatory activity in Swiss albino mouse assessed as inhibition of carrageenan-induced paw edema at 50 mg/kg, po administered 1 hr prior to carrageenan challenge measured after 2 hrs relative to control; type: functional; design: scale not given: the % may be the effect or the level left
Mus musculus [9] = assay: Analgesic activity in Swiss albino mouse assessed as time of licking paws at 100 mg/kg, po measured after 2 hrs by tail flick test relative to control; type: functional
Mus musculus [10] = assay: Analgesic activity in Swiss albino mouse assessed as time of licking paws at 50 mg/kg, po measured after 2 hrs by tail flick test relative to control; type: functional
Mus musculus [11] = assay: Analgesic activity in Swiss albino mouse assessed as latancy of withdrawing tail at 50 mg/kg, po measured after 2 hrs by tail flick test relative to control; type: functional
[12] = molecular target: T2, Prostaglandin G/H synthase 2 (Homo sapiens, UniProt P35354); assay: Inhibition of human recombinant COX-2 using […] as substrate incubated for 10 mins prior to arachidonic acid addition measured after 2 mins by EIA
T2 sequence (P35354 whole entry): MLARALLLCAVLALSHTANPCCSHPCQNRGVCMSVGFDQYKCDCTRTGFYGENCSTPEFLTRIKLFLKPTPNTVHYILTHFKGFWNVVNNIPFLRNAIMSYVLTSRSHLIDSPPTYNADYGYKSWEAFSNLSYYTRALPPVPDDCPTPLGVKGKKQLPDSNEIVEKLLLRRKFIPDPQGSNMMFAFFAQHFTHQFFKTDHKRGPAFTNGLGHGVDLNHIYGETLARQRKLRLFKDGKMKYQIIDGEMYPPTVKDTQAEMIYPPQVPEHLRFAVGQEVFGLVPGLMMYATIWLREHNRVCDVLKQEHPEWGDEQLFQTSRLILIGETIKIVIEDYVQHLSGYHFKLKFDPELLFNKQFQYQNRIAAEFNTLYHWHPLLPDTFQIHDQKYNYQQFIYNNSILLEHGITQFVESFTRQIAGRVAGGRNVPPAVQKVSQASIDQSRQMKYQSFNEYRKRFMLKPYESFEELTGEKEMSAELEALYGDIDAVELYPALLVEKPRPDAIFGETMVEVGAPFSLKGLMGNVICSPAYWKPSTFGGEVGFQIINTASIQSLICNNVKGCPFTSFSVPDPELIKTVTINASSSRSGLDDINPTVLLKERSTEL

Mus musculus [13] = assay: Gastrointestinal toxicity in Swiss albino mouse assessed as ulcer index at 50 mg/kg, po measured after 2 hrs; type: organism-based; design: dose 50 mg/kg, route oral; conditions: in vivo
Mus musculus [14] = assay: Acute toxicity in Swiss albino mouse assessed as mortality at 50 to 100 mg/kg, po measured after 6 hrs to 14 days; type: organism-based; design: dose 50-100 mg/kg, route oral; conditions: in vivo
[15] = Acute toxicity in Swiss albino mouse assessed as mortality at 50 mg/kg, po after 12 hrs; type: organism-based; design: dose 50 mg/kg, route oral; conditions: in vivo

COc1ccc2cc(C(C)c3nc4s/c(=C\c5ccc(C)s5)c(=O)n4n3)ccc2c1 (configuration not stated)
UI (Mus musculus [1]): 2.3
Activity (Mus musculus [2]): Non-toxic
Activity (Mus musculus [3]): 31.1%
IC50 [4]: > 100 µM
Ratio IC50 [5]: > 4.87
MPE (Mus musculus [6]): 43.5%
Activity (Mus musculus [7]): Non-toxic
Activity (Mus musculus [8]): 36.7%
MPE (Mus musculus [9]): 36%
MPE (Mus musculus [10]): 34.9%
MPE (Mus musculus [11]): 32.8%
IC50 [12]: 20.5 µM
UI (Mus musculus [13]): 1.8
Activity (Mus musculus [14]): Non-toxic

COc1ccc2cc(C(C)c3nc4s/c(=C\c5ccc(C(C)C)cc5)c(=O)n4n3)ccc2c1 (configuration not stated)
UI (Mus musculus [1]): 2.4
Activity (Mus musculus [2]): Non-toxic
Activity (Mus musculus [3]): 43.3%
IC50 [4]: 79.6 µM
Ratio IC50 [5]: < 0.796
MPE (Mus musculus [6]): 17.9%
Activity (Mus musculus [7]): Non-toxic
Activity (Mus musculus [8]): 29.3%
MPE (Mus musculus [9]): 22%
MPE (Mus musculus [10]): 27.6%
MPE (Mus musculus [11]): 36.9%
IC50 [12]: > 100 µM
UI (Mus musculus [13]): 2.6
Activity (Mus musculus [14]): Non-toxic

COc1ccc2cc(C(C)c3nc4s/c(=C\c5cccc6ccccc56)c(=O)n4n3)ccc2c1 (configuration not stated)
UI (Mus musculus [1]): 2.2
Activity (Mus musculus [2]): Non-toxic
Activity (Mus musculus [3]): 39.6%
IC50 [4]: 85.6 µM
Ratio IC50 [5]: 1.25
MPE (Mus musculus [6]): 53.8%
Activity (Mus musculus [7]): Non-toxic
Activity (Mus musculus [8]): 43%
MPE (Mus musculus [9]): 36.8%
MPE (Mus musculus [10]): 39.7%
MPE (Mus musculus [11]): 51.9%
IC50 [12]: 68.2 µM
UI (Mus musculus [13]): 2.6
Activity (Mus musculus [14]): Non-toxic

COc1ccc2cc(C(C)c3nc4s/c(=C\C(C)=C\c5ccccc5)c(=O)n4n3)ccc2c1 (configuration not stated)
UI (Mus musculus [1]): 2.3
Activity (Mus musculus [2]): Non-toxic
Activity (Mus musculus [3]): 30.7%
IC50 [4]: 64.7 µM
Ratio IC50 [5]: 2.63
MPE (Mus musculus [6]): 41.1%
Activity (Mus musculus [7]): Non-toxic
Activity (Mus musculus [8]): 35.4%
MPE (Mus musculus [9]): 25.9%
MPE (Mus musculus [10]): 28.7%
MPE (Mus musculus [11]): 45.3%
IC50 [12]: 24.6 µM
UI (Mus musculus [13]): 2
Activity (Mus musculus [14]): Non-toxic

COc1ccc2cc(C(C)c3nc4s/c(=C\c5ccc(-c6ccccc6)cc5)c(=O)n4n3)ccc2c1 (configuration not stated)
UI (Mus musculus [1]): 2.6
Activity (Mus musculus [2]): Non-toxic
Activity (Mus musculus [3]): 40.9%
IC50 [4]: > 100 µM
MPE (Mus musculus [6]): 49.1%
Activity (Mus musculus [7]): Non-toxic
Activity (Mus musculus [8]): 45.3%
MPE (Mus musculus [9]): 39.8%
MPE (Mus musculus [10]): 42.1%
MPE (Mus musculus [11]): 47.1%
IC50 [12]: > 100 µM
UI (Mus musculus [13]): 1.3
Activity (Mus musculus [14]): Non-toxic

COc1ccc2cc(C(C)c3nc4s/c(=C\c5ccc(Br)s5)c(=O)n4n3)ccc2c1 (configuration not stated)
UI (Mus musculus [1]): 2.6
Activity (Mus musculus [2]): Non-toxic
Activity (Mus musculus [3]): 51.2%
IC50 [4]: 39.8 µM
Ratio IC50 [5]: 2.3
MPE (Mus musculus [6]): 41.1%
Activity (Mus musculus [7]): Non-toxic
Activity (Mus musculus [8]): 51.4%
MPE (Mus musculus [9]): 24.4%
MPE (Mus musculus [10]): 29%
MPE (Mus musculus [11]): 38%
IC50 [12]: 17.3 µM
UI (Mus musculus [13]): 1.8
Activity (Mus musculus [14]): Non-toxic

COc1ccc2c(c1)c(CC(=O)O)c(C)n2C(=O)c1ccc(Cl)cc1 [INDOMETHACIN]
UI (Mus musculus [1]): 5.1
Activity (Mus musculus [3]): 50.9%
MPE (Mus musculus [6]): 46.2%
Activity (Mus musculus [8]): 46.8%
MPE (Mus musculus [9]): 40.5%
MPE (Mus musculus [10]): 35.2%
mortality at 12 h [15]: 71%
MPE (Mus musculus [11]): 46.9%
UI (Mus musculus [13]): 4
